Measured values published in patent US20080261931A1, “Method and Means of Preventing and Treating Sleep Disordered Breathing” (Cereu-Science AB, priority 2005, published 2008).

How the values were obtained:
[1] = test system: patient with obstructive sleep apnea; assay: Repeated dosing, multiple medication study with calcium acamprosate and a weight reducing agent (sibutramine); polysomnographic investigation; type: in vivo, human
Method: The patient had recently been started on sibutramine (Reductil® capsules, 15 mg once daily) for weight loss. A follow-up sleep investigation (investigation 2) was performed 126 days later when the patient presented a BMI of 31.8. The AHI at this occasion was 19. Calcium acamprosate therapy was started on 333 mg three times per day orally (Campral® tablets) and increased to twice 333 mg three times per day after two weeks. At the end of this treatment period of four weeks (investigation 3) the BMI was marginally changed compared with investigation 2 (31.6) but AHI had decreased to 9.

[2] = test system: OSA patient; assay: Repeated dosing study with calcium acamprosate in an OSA patient (polysomnographic recording); type: in vivo, human
From the text: A study of repeated calcium acamprosate dosing was undertaken in a patient with a BMI of 32.2. This patient had not consumed any alcohol during the 3 months proceeding the current medication period. The patient suffered from moderate OSA (as determined by an AH index in excess of 35 during previous clinical 8-channel overnight monitoring studies). The contribution from central apneas was low and constituted 5% of obstructive events, respectively. A baseline polysomnographic recording (standard sleep montage, nasal pressure recording) was undertaken at baseline and calcium acamprosate therapy was started on 333 mg three times per day orally (Campral® tablets) with an increase to 2 times 333 mg three times per day after two weeks. Key parameters (indices) were recorded at first dosing and after daily dosing for three weeks (Table).

[3] = pending dosage, route of administration, and dosing scheme; extended in renal impairment; cited from earlier work
[4] = Week 0, investigation 1 (admission), recently started on sibutramine 15 mg once daily
[5] = Week 18, investigation 2 (126 days later), sibutramine 15 mg once daily
[6] = Week 3 of oral calcium acamprosate, Week 0 baseline 3

SMILES	AHI (apnea/hypopnea index, number of obstructive apneic/hypopneic events per hour of sleep) [1, 4]	BMI (body mass index) [1, 4] [kg/m^2]	AHI (apnea/hypopnea index, number of obstructive apneic/hypopneic events per hour of sleep) [1, 5]	BMI (body mass index) [1, 5] [kg/m^2]	CSAI (central sleep apnea index, number of central apneic events per hour of sleep) [2, 6]	Sat <90%/hr (number of apneic/hypopneic episodes per hour of sleep with an oxygen saturation below 90%) [2, 6]	AI (apnea index, number of obstructive apneic events per hour of sleep) ([2]; Week 3 of oral calcium acamprosate, Week 0 baseline 18)	HI (hypopnea index, number of obstructive hypopneic events per hour of sleep) ([2]; Week 3 of oral calcium acamprosate, Week 0 baseline 22)	AHI (apnea/hypopnea index, number of obstructive apneic/hypopneic events per hour of sleep) ([2]; Week 3 of oral calcium acamprosate, Week 0 baseline 40)	MinSat (lowest oxygen saturation value recorded during the period of sleep) ([2]; Week 3 of oral calcium acamprosate, Week 0 baseline 86)	Number of central and mixed events ([2]; after calcium acamprosate, polysomnography)	Daytime sleepiness (patient-reported) ([2]; already after one week)	Snoring (patient-reported) ([2]; early after introduction of the medication)	Apnea reducing effect in sleep apnea ([2]; obstructive and seemingly central events, maintained over the entire study period)	Side effects ([2]; three-week study, one patient)	Half-life in plasma [3] [h]	Apnea reducing effect in a patient with sleep apnea ([1]; added to sibutramine)	Effect of calcium acamprosate in comparison with that obtained by the weight reducing agent ([1]; combined with sibutramine)
CC(C)CC(N(C)C)C1(c2ccc(Cl)cc2)CCC1 (stereo not drawn) [Sibutramine, sibutramine]	30 events per hour of sleep	33.2	19 events per hour of sleep	31.8														
CC(=O)NCCCS(=O)(=O)O [calcium acamprosate]					2 events per hour of sleep	1 episodes per hour of sleep	7 events per hour of sleep	9 events per hour of sleep	16 events per hour of sleep	91	seemed to decrease in proportion to the number of obstructive events	reduction in daytime sleepiness	notable reduction in snoring	potent apnea reducing effect	No significant side effects	15 to 30	potent apnea reducing effect	additive
